Molecules are shown by their SMILES.

Holding throughout (type): biochemical
The target of one assay is SIK3 (Homo sapiens, UniProt Q9Y2K2). In words: Enzymatic activity assay SIK3, RapidFire mass spectrometry (phosphorylation of CHK-peptide). As to conditions: RapidFire MS, inhibition of SIK3; read-out: SIK3 RF IC50. In short, it runs like this: (§1)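 Compounds (12-point, 3-fold, generally 30 μM to 170 pM) were pre-incubated 30 min at ambient temperature with SIK1 (5 nM), SIK2 (0.5 nM) or SIK3 (1.5 nM) in HEPES pH 7.0/magnesium acetate buffer. CHK-peptide (10 μM solution) and ATP (100 μM solution) were then added for 45 min before formic acid quench.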

In the next assay the target is SIK1 (Homo sapiens, UniProt P57059). In words: Enzymatic activity assay SIK1, RapidFire mass spectrometry (phosphorylation of CHK-peptide). As to conditions: RapidFire MS, inhibition of SIK1; read-out: SIK1 RF IC50. The gist of the method: as §1
The target in the next assay is SIK2 (Homo sapiens, UniProt Q9H0K1). Briefly: Enzymatic activity assay SIK2, RapidFire mass spectrometry (phosphorylation of CHK-peptide). As to conditions: RapidFire MS, inhibition of SIK2; read-out: SIK2 RF IC50. The gist of the method: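 SIK2 (0.5 nM) in pH 7.0 HEPES buffer with 10 mM Mg acetate phosphorylates CHK-peptide (10 μM solution) with 100 μM ATP solution, 45 min ambient, then formic acid quench.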
Chain of SIK2 (Q9H0K1 whole entry): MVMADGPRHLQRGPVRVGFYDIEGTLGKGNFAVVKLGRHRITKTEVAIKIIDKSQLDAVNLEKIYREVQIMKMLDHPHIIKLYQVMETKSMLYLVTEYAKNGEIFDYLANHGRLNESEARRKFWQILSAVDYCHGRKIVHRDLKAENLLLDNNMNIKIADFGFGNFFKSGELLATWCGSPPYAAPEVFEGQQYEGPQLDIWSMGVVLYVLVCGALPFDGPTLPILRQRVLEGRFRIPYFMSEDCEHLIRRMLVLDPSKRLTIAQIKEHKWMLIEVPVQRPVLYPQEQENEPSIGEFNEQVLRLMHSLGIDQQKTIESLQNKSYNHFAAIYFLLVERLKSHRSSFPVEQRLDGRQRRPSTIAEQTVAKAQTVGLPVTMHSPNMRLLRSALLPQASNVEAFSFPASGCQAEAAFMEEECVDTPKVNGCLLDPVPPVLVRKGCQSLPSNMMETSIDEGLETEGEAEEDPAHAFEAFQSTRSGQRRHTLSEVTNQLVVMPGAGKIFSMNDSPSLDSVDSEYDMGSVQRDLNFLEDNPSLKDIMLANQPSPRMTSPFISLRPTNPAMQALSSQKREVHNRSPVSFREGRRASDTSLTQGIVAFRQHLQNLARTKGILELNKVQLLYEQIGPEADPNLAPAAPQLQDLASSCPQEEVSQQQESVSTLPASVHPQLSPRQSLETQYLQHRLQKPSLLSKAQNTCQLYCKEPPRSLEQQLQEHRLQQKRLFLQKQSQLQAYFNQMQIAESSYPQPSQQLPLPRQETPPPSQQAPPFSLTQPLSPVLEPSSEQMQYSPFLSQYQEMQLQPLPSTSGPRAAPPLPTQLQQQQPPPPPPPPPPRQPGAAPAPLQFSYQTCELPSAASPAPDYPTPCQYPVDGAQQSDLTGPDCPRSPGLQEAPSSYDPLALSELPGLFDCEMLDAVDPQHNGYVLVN

Chain of SIK1 (P57059 whole entry): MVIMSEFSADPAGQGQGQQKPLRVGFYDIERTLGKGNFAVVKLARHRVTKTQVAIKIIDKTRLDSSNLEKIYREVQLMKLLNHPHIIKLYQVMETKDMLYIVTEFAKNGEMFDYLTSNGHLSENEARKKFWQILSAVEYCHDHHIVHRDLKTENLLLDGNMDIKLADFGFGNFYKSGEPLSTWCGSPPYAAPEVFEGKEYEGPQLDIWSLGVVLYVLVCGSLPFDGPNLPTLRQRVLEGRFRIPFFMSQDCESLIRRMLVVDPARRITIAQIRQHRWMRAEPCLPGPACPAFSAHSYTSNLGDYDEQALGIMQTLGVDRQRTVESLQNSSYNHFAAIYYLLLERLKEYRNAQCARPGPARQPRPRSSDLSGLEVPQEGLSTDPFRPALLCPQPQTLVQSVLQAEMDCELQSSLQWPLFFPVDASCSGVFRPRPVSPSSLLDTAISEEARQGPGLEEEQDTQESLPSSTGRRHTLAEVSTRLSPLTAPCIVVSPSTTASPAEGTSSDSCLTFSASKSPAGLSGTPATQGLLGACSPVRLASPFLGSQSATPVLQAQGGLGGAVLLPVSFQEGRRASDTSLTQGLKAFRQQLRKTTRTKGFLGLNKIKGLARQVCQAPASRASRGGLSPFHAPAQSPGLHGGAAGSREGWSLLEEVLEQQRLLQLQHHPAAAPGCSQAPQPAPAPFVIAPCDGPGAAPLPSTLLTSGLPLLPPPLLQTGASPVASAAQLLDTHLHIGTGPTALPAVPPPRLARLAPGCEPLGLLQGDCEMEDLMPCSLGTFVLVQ
Chain of SIK3 (Q9Y2K2 whole entry): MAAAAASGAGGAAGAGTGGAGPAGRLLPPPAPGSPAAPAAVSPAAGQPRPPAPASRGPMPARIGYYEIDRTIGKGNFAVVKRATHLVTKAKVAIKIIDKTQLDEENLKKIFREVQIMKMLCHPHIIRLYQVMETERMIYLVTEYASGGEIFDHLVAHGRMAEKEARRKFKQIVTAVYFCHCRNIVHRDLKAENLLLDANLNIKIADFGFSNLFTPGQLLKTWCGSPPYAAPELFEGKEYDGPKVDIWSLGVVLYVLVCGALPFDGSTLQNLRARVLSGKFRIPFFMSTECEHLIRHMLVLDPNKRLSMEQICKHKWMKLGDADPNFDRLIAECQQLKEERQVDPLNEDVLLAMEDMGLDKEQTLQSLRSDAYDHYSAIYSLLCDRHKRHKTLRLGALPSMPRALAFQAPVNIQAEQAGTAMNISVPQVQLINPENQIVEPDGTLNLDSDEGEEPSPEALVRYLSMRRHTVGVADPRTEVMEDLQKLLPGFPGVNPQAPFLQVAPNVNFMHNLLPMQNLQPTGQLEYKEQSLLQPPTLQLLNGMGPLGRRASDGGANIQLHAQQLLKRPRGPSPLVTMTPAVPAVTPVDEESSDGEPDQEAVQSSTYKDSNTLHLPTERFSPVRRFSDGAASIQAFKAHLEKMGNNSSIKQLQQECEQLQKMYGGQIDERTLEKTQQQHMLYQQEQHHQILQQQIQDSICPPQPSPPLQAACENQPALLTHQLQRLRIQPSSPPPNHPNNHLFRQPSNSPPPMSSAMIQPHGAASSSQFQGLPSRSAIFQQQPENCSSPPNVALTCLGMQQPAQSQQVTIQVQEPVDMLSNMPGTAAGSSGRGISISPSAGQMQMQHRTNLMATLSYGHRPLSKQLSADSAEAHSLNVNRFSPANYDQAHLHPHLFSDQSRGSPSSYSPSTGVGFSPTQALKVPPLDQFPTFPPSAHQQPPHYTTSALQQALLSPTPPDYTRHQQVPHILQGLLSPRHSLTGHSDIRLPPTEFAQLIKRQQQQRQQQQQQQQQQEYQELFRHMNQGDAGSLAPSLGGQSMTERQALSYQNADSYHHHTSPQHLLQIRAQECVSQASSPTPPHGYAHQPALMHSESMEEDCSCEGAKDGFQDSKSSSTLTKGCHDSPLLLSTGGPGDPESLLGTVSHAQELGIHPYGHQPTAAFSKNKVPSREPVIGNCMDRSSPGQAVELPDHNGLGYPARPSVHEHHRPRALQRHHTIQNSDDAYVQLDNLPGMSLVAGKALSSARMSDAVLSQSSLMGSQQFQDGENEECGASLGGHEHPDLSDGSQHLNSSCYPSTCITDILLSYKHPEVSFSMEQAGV

Usually IC50 stands for the concentration needed to halve the response being measured. Regarding `Cc1ccc(Nc2ccc3c(c2)ncn3-c2ccc(C(C)O)c(N3CC4CC3CC4(F)F)n2)nn1` (stereo not drawn) [Example 322, 1-[2-(5,5-difluoro-2-azabicyclo[2.2.1]heptan-2-yl)-6-[5-[(6-methylpyridazin-3-yl)amino]benzimidazol-1-yl]-3-pyridyl]ethanol], the IC50 was 0.0024 µM at SIK3, 0.966 µM on SIK1 and 0.0163 µM at SIK2.

With `Cc1ccc(Nc2ccc3c(c2)ncn3-c2ccc(C(C)O)c(N3CCOC(C(F)F)C3)n2)nn1` (stereo not drawn) [Example 323, 1-[2-[2-(difluoromethyl)morpholin-4-yl]-6-[5-[(6-methylpyridazin-3-yl)amino]benzimidazol-1-yl]-3-pyridyl]ethanol], the IC50 on SIK3 turned out to be 0.0071 µM; on SIK1, 2.53 µM; on SIK2, 0.0485 µM.

On to `Cc1ccc(Nc2ccc3c(c2)ncn3-c2ccc(C(C)O)c(N3CC4CC3C(F)(F)C4)n2)nn1` (stereo not drawn) [Example 324, 1-[2-(6,6-difluoro-2-azabicyclo[2.2.1]heptan-2-yl)-6-[5-[(6-methylpyridazin-3-yl)amino]benzimidazol-1-yl]-3-pyridyl]ethanol], for which the values for the half-inhibitory concentration (IC50) at SIK3, on SIK1 and at SIK2 were 0.0008 µM, 0.577 µM and 0.0105 µM, respectively.

As to `Cc1ccc(Nc2ccc3c(c2)ncn3-c2ccc(C(C)O)c(N3CC(C(F)F)C4(CC4)C3)n2)nn1` (stereo not drawn) [Example 325, 1-[2-[7-(difluoromethyl)-5-azaspiro[2.4]heptan-5-yl]-6-[5-[(6-methylpyridazin-3-yl)amino]benzimidazol-1-yl]-3-pyridyl]ethanol], the concentration for half-maximal inhibition (IC50) on SIK3 turned out to be 0.0034 µM; on SIK1 it was 1.12 µM; at SIK2 it was 0.0214 µM.

Regarding `Cc1ccc(Nc2ccc3c(c2)ncn3-c2ccc(C(C)O)c(N3CC4CC(F)(F)C4C3)n2)nn1` (stereo not drawn) [Example 326, 1-[2-(6,6-difluoro-3-azabicyclo[3.2.0]heptan-3-yl)-6-[5-[(6-methylpyridazin-3-yl)amino]benzimidazol-1-yl]-3-pyridyl]ethanol], the IC50 at SIK3 is 0.0078 µM; on SIK1, 1.67 µM; at SIK2, 0.0671 µM.

`Cc1cc(C#N)nn1-c1nc(-n2cnc3cc(NC(=O)C4CC4)ccc32)ccc1C(C)O` (stereo not drawn) [Example 327, N-[1-[6-(3-cyano-5-methyl-pyrazol-1-yl)-5-(1-hydroxyethyl)-2-pyridyl]benzimidazol-5-yl]cyclopropanecarboxamide]: the IC50 on SIK3 worked out at 0.0041 µM; on SIK1, 0.04 µM; on SIK2 it was 0.0072 µM.

For `Cc1cc(C#N)nn1-c1nc(-n2cnc3ccc(NC(=O)C4CC4)cc32)ccc1C(C)O` (stereo not drawn) [Example 328, N-[3-[6-(3-cyano-5-methyl-pyrazol-1-yl)-5-(1-hydroxyethyl)-2-pyridyl]benzimidazol-5-yl]cyclopropanecarboxamide], the figures for the IC50 at SIK3, at SIK1 and at SIK2 were 0.0365 µM, 0.127 µM and 0.0661 µM, respectively.

As to `Cc1ccc(Nc2ccc3c(c2)ncn3-c2ccc(C(C)O)c(N3CCNC4(CC4)C3)n2)nn1` (stereo not drawn) [Example 329, 1-[2-(4,7-diazaspiro[2.5]octan-7-yl)-6-[5-[(6-methylpyridazin-3-yl)amino]benzimidazol-1-yl]-3-pyridyl]ethanol], the values for the IC50 at SIK3, at SIK1 and at SIK2 were 0.01 µM, 1.74 µM and 0.059 µM, respectively.

For `Cc1cc(C#N)nn1-c1nc(-n2cnc3cc(N4CC[C@H]5CNC(=O)[C@H]54)ccc32)ccc1C(C)O` (stereo partly drawn) [Example 330, 1-[6-[5-[(3aS,6aS)-6-oxo-2,3,3a,4,5,6a-hexahydropyrrolo[2,3-c]pyrrol-1-yl]benzimidazol-1-yl]-3-(1-hydroxyethyl)-2-pyridyl]-5-methylpyrazole-3-carbonitrile], the IC50 on SIK3 came to 0.0513 µM; at SIK1 it was 0.113 µM; on SIK2, 0.026 µM.

Take `Cc1ccc(Nc2ccc3c(c2)ncn3-c2ccc(C(C)O)c(N3CCNC(C(F)(F)F)C3)n2)nn1` (stereo not drawn) [Example 331, 1-[6-[5-[(6-methylpyridazin-3-yl)amino]benzimidazol-1-yl]-2-[3-(trifluoromethyl)piperazin-1-yl]-3-pyridyl]ethanol]: the IC50 on SIK3 is 0.0093 µM; at SIK1, 3.34 µM; at SIK2, 0.0715 µM.

The values are drawn from patent US20240383875A1, “Benzimidazole Pyridine Derivatives” (Hoffmann-La Roche Inc., priority 2022, published 2024).
